“Also recorded” adds a separate entry of the source.
Experiments:
5-HT1B = 5-HT1B (Homo sapiens, UniProt P28222); details: Schipper et al.; cited from earlier work
5-HT1D receptor = details: compared with serotonin; Schipper et al.; cited from earlier work
[1] = system: symptoms of ADHD in adults; assay: Continuous Performance Test (CPT), same trial; format: in vivo, human; details: 5 or 10 mg/day, 14 days
Description: (§1) This double-blind, multiple-dose, placebo-controlled, crossover study was conducted to assess the effects of 14 days of oral eltoprazine treatment in 48 adults with ADHD. Subjects eligible for study enrollment were to have met Diagnostic and Statistical Manual of Mental Disorders, Fourth Edition, Text Revision (DSM-IV-TR) criteria for ADHD. Assessment was to be made by clinical history, a Structured Clinical Interview for DSM-IV Axis Disorders-Research Version (SCID-RV), and a Conners' Adult ADHD Diagnostic Interview for DSM IV (CAADID).
(§2) Oral doses of eltoprazine hydrochloride were 5 mg/day or 10 mg/day for 14 consecutive days (i.e., 2.5 or 5 mg twice daily (bid), respectively). Eltoprazine hydrochloride was administered in gelatin capsules with calcium hydrogen phosphate, 2H2O, maize starch NF, polyethylene glycol 6000 NF and magnesium stearate NF as excipients.
(§3) Secondary endpoints were evaluated with the Clinical Global Impressions-Improvement (CGI-I) and Continuous Performance Test. (CPT). The CGI-I test is used to determine the […] of improvement.

5-HT1A/1B receptor = details: cited from earlier work
5-HT1 = details: selective with respect to all receptors other than 5-HT1; cited from earlier work
[2] = system: symptoms of ADHD in adults; assay: Clinical Global Impressions-Improvement (CGI-I), same trial; format: in vivo, human; details: 14 days; for CGI-I, percent of subjects showing improvement: b136 all subjects
Description: as §1, §2, §3

5-HT2C receptors = biological target: T1, 5-HT2C receptors (Homo sapiens, UniProt P28335); details: relative to 5-HT1A, 5-HT1B; Schipper et al.; cited from earlier work
T1 sequence (P28335 33-458): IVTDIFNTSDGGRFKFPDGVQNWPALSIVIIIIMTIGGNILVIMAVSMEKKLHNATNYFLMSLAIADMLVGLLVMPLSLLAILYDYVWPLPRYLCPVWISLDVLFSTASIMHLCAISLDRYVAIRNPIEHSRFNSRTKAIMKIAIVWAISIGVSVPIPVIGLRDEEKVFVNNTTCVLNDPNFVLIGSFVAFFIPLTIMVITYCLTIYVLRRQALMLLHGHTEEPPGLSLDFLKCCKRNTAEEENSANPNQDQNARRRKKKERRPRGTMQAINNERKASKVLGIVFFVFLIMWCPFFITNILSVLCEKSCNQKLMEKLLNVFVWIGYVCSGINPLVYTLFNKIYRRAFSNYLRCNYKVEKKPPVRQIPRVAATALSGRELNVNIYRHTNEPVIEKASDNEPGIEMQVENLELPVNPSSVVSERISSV

[3] = system: prefrontal cortex (PFC) of C57 mice; assay: Microdialysis in the prefrontal cortex; format: in vivo; details: 3, 10 and 30 mg/kg, six mice per dose group
Description: Microdialysis probes were implanted in the prefrontal cortex; coordinates were: AP+2.0 mm, ML+0.7 mm (under an 8° angle) from bregma, DV −3.3 mm from the dura, with the tooth-bar also set at 0 mm. The active dialysis surface length of the membrane was 2 mm. Microdialysis experiments started 48 h (prefrontal cortex) after surgery. Ringer solution was perfused through the microdialysis probe at a flow at 1.166 μl/min using a high precision pump (KdScientific 220). Mouse dual channel swivels (Type 375/D/22QM, Instech Laboratories, Inc.) connected to PEEK-tubing (ID 0.005,″ OD 0.020″) were used to allow unrestrained movements of the mice. Samples were collected by hand 2.5 h after the start of the dialysis probe perfusion to obtain stable baseline values for the monoamines and their metabolites. The average of the first four samples was calculated and represents the baseline level. Samples were collected every 30 min were analyzed by HPLC with electrochemical detection.
Six mice per dose group were treated with vehicle or eltoprazine at 3 mg/kg, 10 mg/kg and 30 mg/kg.

rats = assay: Radial arm maze, scopolamine-induced working memory deficit; format: in vivo; details: eltoprazine 0.3 mg/kg PO + scopolamine 0.5 mg/kg IP, ANOVA, FIG. 2
Description: Several mazes, such as the radial arm maze (RAM) have been adapted to assess working memory in rodents. The RAM consists of eight long runways radiating out in a circle from a central compartment. In the RAM rats learn to retrieve food rewards from all or a sub-set of the arms. Working memory is assessed by measuring entries into previously baited arms within a given trial. […] Hippocampal lesions produce deficits both in adults and in the neonatal hippocampal lesion model of schizophrenia.
For training, food deprived rats were placed in an enclosed cylinder in the center of the maze for 20 s, prior to being allowed to explore the maze by removing the cylinder. Each radial arm is baited with a food reward. Animals were given a maximum of 5 minutes to retrieve all food rewards. This training continued once daily for three weeks until animals met the performance criteria for successful acquisition of the task.
Four parameters were recorded to assess the performance of the rat: (1) the number of errors, which is defined as entering an arm that had already been entered, (2) the number of consecutive entries into un-visited arms before the first error occurred (entries to repeat), (3) latency to complete the task, and (4) the total number of arm entries before all food in the eight arms is collected or the maximum session duration is reached. […]

5-HT1B, sequence (P28222 whole entry, species assumed): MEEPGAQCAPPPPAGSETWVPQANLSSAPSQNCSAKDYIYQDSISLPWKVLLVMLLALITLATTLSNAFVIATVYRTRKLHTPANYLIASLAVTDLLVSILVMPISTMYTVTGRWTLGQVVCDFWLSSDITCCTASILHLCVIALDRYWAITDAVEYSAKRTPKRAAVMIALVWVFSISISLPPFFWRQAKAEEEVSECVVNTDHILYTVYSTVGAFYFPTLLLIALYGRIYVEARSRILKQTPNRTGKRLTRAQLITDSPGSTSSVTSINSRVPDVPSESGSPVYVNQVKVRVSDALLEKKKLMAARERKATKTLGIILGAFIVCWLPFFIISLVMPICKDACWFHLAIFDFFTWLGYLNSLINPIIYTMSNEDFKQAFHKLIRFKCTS

## c1cc2c(c(N3CCNCC3)c1)OCCO2 [Eltoprazine, 1-(2,3-dihydro-1,4-benzodioxanyl-5-yl) piperazine]
5-HT1B
  Binding affinity for 5-HT1B: roughly equipotent affinity
5-HT1D receptor
  Binding affinity for the 5-HT1D receptor: relatively low affinity
[1]
  CPT findings: did not result in any statistically significant findings
5-HT1A/1B receptor
  Functional mode of action: mixed 5-HT1A/1B receptor agonist
5-HT1
  Binding selectivity: selective 5-HT1 ligand
[2]; 5 mg/day, n = 38
  CGI-I Mean Improvement (S.D.): 2.6 (1.2)
  CGI-I, Number of Patients Improved: 26
  CGI-I, Number of Patients Not Improved: 12
[2]; 5 mg/day, b141/b146 subgroup with baseline score >40
  CGI-I, percent of subjects showing improvement: 62%
[2]; 10 mg/day, n = 37
  CGI-I Mean Improvement (S.D.): 2.7 (0.9)
  CGI-I, Number of Patients Improved: 30
  CGI-I, Number of Patients Not Improved: 7
[2]; 10 mg/day, b141 subgroup with baseline score >40
  CGI-I, percent of subjects showing improvement: 71%
[2]; more severely affected population (baseline score >40), 5 mg/day
  CGI reduction in severity score: 14%
5-HT2C receptors
  Binding affinity for 5-HT2C receptors: somewhat lower affinity
[3]; FIG. 4
  Release of dopamine in the PFC: significant release; also recorded: dose-related increase
[3]; FIG. 5
  Release of the dopamine metabolite DOPAC in the PFC: dose-related increase
[3]; FIG. 6
  Release of the metabolite HVA in the PFC: dose-related increase
[3]; FIG. 7
  Release of norepinephrine in the PFC: significant release; also recorded: dose-related increase
rats
  Effect on scopolamine-induced decrease of entries to repeat: attenuated
